Measured values published in patent publication US20240099298A1, “BIOINSECTICIDAL COMPOSITIONS CONTAINING MONOTERPENES AND METHODS OF USE THEREOF” (priority 2017, published 2024).
In brackets after ≈: the same amount, converted by molar mass. Counter-ions that a name gives are not always drawn. Like-named read-outs stand apart in the source and are kept apart here. Marks after values point to notes of the source that are not given here.

Legend:
adult T. palmi = settings: cited from earlier work
[1] = cited from earlier work
[2] = test system: Megalurothrips usitatus (flower Thrips); settings: for activity against flower Thrips in preliminary screening: adult M. usitatus, 24 hours of fumigation in 1-L flasks; for mortality: in vivo
M. domestica (housefly) = experiment: Median lethal time (LT50) test, housefly; format: in vivo, Musca domestica
Description: (§1) All treatments and controls were in triplicate.
(§2) Toxicity of Monoterpenes as Fumigants. […] Therefore, to determine how fast the monoterpenes act as fumigants, it was necessary to determine their LT50 values for the target organisms.

[3] = test system: T. castaneum (red flour beetle); experiment: Median lethal time (LT50) test, red flour beetle; format: in vivo, Tribolium castaneum
Description: as §1, §2

[4] = test system: H. picinus (Nitidulid beetle); experiment: Median lethal time (LT50) test, Nitidulid beetle; format: in vivo, Haptoncus picinus
Description: as §1, §2

[5] = test system: A. japonicus (parasitic wasp); experiment: Median lethal time (LT50) test, parasitic wasp (natural enemy); settings: non-target parasitic wasp
Method: (§3) Insect Egg Parasitic Wasp (Natural Enemy). […] Both species were purchased from a commercial source. One- to two-day-old adults (after eclosion) were used for fumigation tests.
Median Lethal Time (LT50) and Median Knockdown Concentration (KC50) Tests. Five species of adult insects or natural enemies were tested for LT50 values including melon fly (B. cucuribitae), red flour beetle (T. castaneum), Nitidulidae beetle (H. picinus), parasitic wasp (A. japonicus) and housefly (M. domestica). For each treatment and control, 20 insects at the developmental stages described above were placed individually without food in a 1-L wide-mouth glass bottle (height 19.5 cm, bottom diameter 10.5 cm, mouth i.d. 5.5 cm) containing pieces of tissue paper. […] Five different concentrations of the test chemicals were placed on pieces of cellulose-based qualitative filter paper. Each of the filter papers was placed in a bottle to have 5 appropriate concentrations in serial dilutions. DDVP was the positive control, and no chemical treatments were the negative control. All treatments and controls were in triplicate. Mortality was observed periodically in a 10-30 minute interval for 2 days or until all insects died. The death was defined as no movement when the insects were touched.

[6] = test system: B. cucuribitae (melon fly); experiment: Median lethal time (LT50) test, melon fly; format: in vivo, Bactrocera cucuribitae
Description: as §1, §2

[7] = test system: Musca domestica (housefly); experiment: Median knockdown concentration (KC50) test, housefly; format: in vivo; settings: for KC50 (fiducial limits): Musca domestica; for time within which the insects responded: houseflies
Description: as §1
(§4) Knockdown Activity of Monoterpenes.

[8] = test system: Musca domestica (Linnaeus) (housefly)
Description: (§5) Median Lethal Concentration Tests. […] The species tested included Thrips (M. usitatus), spider mite (T. cinnabarinus), melon fly (B. cucuribitae), cockroach (B. lateralis), housefly (M. domestica), mosquito (A. aegypti), parasitic wasp (T. chilonis) and fruit fly (Drosophila melanogaster). After being exposed to the test chemicals for one hour, adult Thrips, spider mites, and roaches were transferred to another flask. In addition to fresh water, adult Thrips, spider mites, and roaches were then respectively fed with cowpea, fresh blade of eggplant, and peanut oil via filter. […] Mortality of melon fly was observed after three hours of exposure.

[9] = test system: Blatta lateralis (Walker) (cockroach)
Description: as §5

[10] = test system: Bactrocera cucuribitae (Coquillett) (melon fly)
Description: as §5

[11] = test system: Tetranychus cinnabarinus (Boisduval) (spider mites)
Description: as §5

[12] = test system: Aedes aegypti (Linnaeus) (mosquito)
Description: as §5

[13] = test system: T. chilonis (parasitic wasp); settings: non-target parasitic wasp, mortality after 15 minutes of exposure
Description: as §3, §5

Aedes aegypti (mosquito) = experiment: Median knockdown concentration (KC50) test, mosquito; format: in vivo
Description: as §1, §4

[14] = test system: Megalurothrips usitatus (Bagrall) (thrips); experiment: Median lethal concentration fumigation test, thrips; settings: adult thrips, exposed one hour, mortality observed in 24 hours
Description: as §5

[15] = test system: Drosophila melanogaster (fruit fly); experiment: Median lethal concentration fumigation test, fruit fly; format: in vivo; settings: mortality after 280 minutes
[16] = test system: leafhoppers, Cicadella viridi linne; experiment: Field test, leafhoppers; format: in vivo; settings: Leafhopper
Method: (§6) Field Tests. […] Therefore, it was determined whether this compound could control Thrips in the field. Linalool was in 20-, 10- and 5.0-fold dilutions with edible peanut oil. The positive control was spinetoram (Dow AgroSciences) in 3000-fold dilution.
(§7) The field experimental plots were 15 m^2 in size, in triplicate. A designated sprayer (Dia spray No. 3530, Japan Furlpla Co., Japan) was used to spray the solvent only negative control in this experiment. Grub density was calculated at every plot prior to application. During the experiments, the field was also infested with leafhoppers, so that the control efficacy of leafhoppers was also assessed. The number of adult Thrips and leafhoppers was assessed in the treatment and control areas at 1, 3, 5, 7, 14 and 21 days after application. The decline of the adult Thrips and leafhoppers was calculated to assess the control efficacy of linalool.
A 10-fold dilution of linalool was also the most efficacious application, compared to 5- and 20-fold dilutions, in controlling leafhoppers, Cicadella viridi linne (Hemiptera: Cicadellidae). At 7 and 14 days after treatment, the control efficacy of the 10-fold dilution of linalool reached 96% and 98%, respectively.

flower Thrips = experiment: Field test in cowpea fields, thrips; format: in vivo
Method: as §6, §7
Field Applications. To assess the use of monoterpenes in the field, linalool was tested for control of flower Thrips in cowpea fields. […] At 1 and 3 days after treatment, control efficacy respectively reached 98% and 100% for the 10-fold dilution (Table 15). By comparison, the positive control, a 3000-fold dilution of spinetoram, reached 70% and 94% at 1 and 3 days after treatment, respectively (Table 17).

[17] = adult housefly, exposed one hour, mortality in 24 hours
[18] = cockroach second instar nymphs, exposed one hour
[19] = adult mosquito, exposed 30 minutes, mortality in 24 hours

CC12CCC(CC1=O)C2(C)C (racemic) [(±)-camphor, reference compound]
LC50, fumigation toxicity (adult T. palmi): 9.7 µg/mL (≈ 63.7 µM)

CC12CCC(CC1)C(C)(C)O2 [1,8-Cineole]
LC50, fumigation toxicity (adult T. palmi): 16.7 µg/mL (≈ 108 µM)
Vp (Pa)/T (° C.) ([1]; T 25 °C): 253.31/25 Pa

C=C(C)[C@H]1CC=C(C)CC1 [(+)-Limonene]
activity against flower Thrips in preliminary screening [2]: not active
Vp (Pa)/T (° C.) ([1]; T 25 °C): 263.97/25 Pa

C=C(C)[C@@H]1CC=C(C)CC1 [(−)-Limonene]
activity against flower Thrips in preliminary screening [2]: not active
Vp (Pa)/T (° C.) ([1]; T 25 °C): 206.65/25 Pa

C=C[C@](C)(O)CCC=C(C)C [(−)-Linalool]
Vp (Pa)/T (° C.) ([1]; T 23.5 °C): 21.20/23.5 Pa

CC(C)=O [Acetone]
LT50 (fiducial limits) (M. domestica (housefly)): >48^a ^ hour
LT50 (fiducial limits) [3]: >48^a ^ hour
LT50 (fiducial limits) [4]: >48^a ^ hour
mortality [2]: No mortality
LT50 (fiducial limits) against A. japonicus [5]: >48^a hour
LT50 (fiducial limits) [6]: >48^a ^ hour

Cc1ccc(C(C)C)cc1O [Carvacrol]
KC50 (fiducial limits) ([7]; 10 Minutes): >7600 µg/mL
KC50 (fiducial limits) ([7]; 20 Minutes): >243 µg/mL
KC50 (fiducial limits) ([7]; 30 Minutes): >243 µg/mL
time within which the insects responded [7]: ≤ 10 min
LT50 (fiducial limits) (M. domestica (housefly)): 2.30 h
LC50 (fiducial limits) [8, 17]: >243 µg/mL
LC90 (fiducial limits) [8, 17]: >243 µg/mL
LC50 (fiducial limits) [9, 18]: 84.5 µg/mL (≈ 563 µM)
LC90 (fiducial limits) [9, 18]: 118 µg/mL (≈ 786 µM)
LC50 (fiducial limits) ([10]; melon fly): >243 µg/mL
LC90 (fiducial limits) ([10]; melon fly): >243 µg/mL
LC50 (fiducial limits) ([11]; spider mites, exposed one hour): 37.5 µg/mL (≈ 250 µM)
LC90 (fiducial limits) ([11]; spider mites, exposed one hour): 510 µg/mL (≈ 3390 µM)
LC50 (fiducial limits) [12, 19]: 0.77 µg/mL (≈ 5.13 µM)
LC90 (fiducial limits) [12, 19]: 3.92 µg/mL (≈ 26.1 µM)
LT50 (fiducial limits) [3]: 9.95 h
LT50 (fiducial limits) [4]: 1.94 h
LC50 (fiducial limits) against T. chilonis [13]: 826 µg/mL (≈ 5500 µM)
LC90 (fiducial limits) against T. chilonis [13]: 7.08 µg/mL (≈ 47.1 µM)
KC50 (fiducial limits) (Aedes aegypti (mosquito); 10 Minutes): >243 µg/mL
KC50 (fiducial limits) (Aedes aegypti (mosquito); 20 Minutes): 6.0 µg/mL
KC50 (fiducial limits) (Aedes aegypti (mosquito); 30 Minutes): >243 µg/mL
activity against flower Thrips in preliminary screening [2]: exhibit insecticidal activity
LT50 (fiducial limits) against A. japonicus [5]: 3.32 (2.05-7220) hour
LC50 (fiducial limits) [14]: >19.2 µg/mL
LC90 (fiducial limits) [14]: >19.2 µg/mL
LT50 (fiducial limits) [6]: 2.49 h
Vp (Pa)/T (° C.) ([1]; T 25 °C): 3.99/25 Pa

ClC(Cl)Cl [Chloroform]
LT50 (fiducial limits) (M. domestica (housefly)): >48^a ^ hour
LT50 (fiducial limits) [3]: >48^a ^ hour
LT50 (fiducial limits) [4]: >48^a ^ hour
mortality [2]: No mortality
LT50 (fiducial limits) against A. japonicus [5]: >48^a hour
LT50 (fiducial limits) [6]: >48^a ^ hour

COP(=O)(OC)OC=C(Cl)Cl [DDVP 80%, 2,2-Dichlorovinyl dimethyl phosphate, reference compound]
KC50 (fiducial limits) ([7]; 20 Minutes): >2.7 µg/mL
KC50 (fiducial limits) ([7]; 30 Minutes): >2.7 µg/mL
LC90 (fiducial limits) [8, 17]: 0.53 µg/mL
LC90 (fiducial limits) [9, 18]: 9.51 µg/mL
LC90 (fiducial limits) ([10]; melon fly): 0.0014 µg/mL
LC90 (fiducial limits) ([11]; spider mites, exposed one hour): 0.80 µg/mL
LC90 (fiducial limits) [12, 19]: 0.0028 µg/mL
LT50 (fiducial limits) [3]: 2.70 h
LC90 (fiducial limits) against T. chilonis [13]: >3.75 µg/mL
KC50 (fiducial limits) (Aedes aegypti (mosquito); 30 Minutes): >0.081 µg/mL
LT50 (fiducial limits) against A. japonicus [5]: 0.41 (0.07-0.49) hour
LC90 (fiducial limits) [14]: 1.85 µg/mL
LT50 (fiducial limits) [6]: 0.89 h
LC90 (fiducial limits) [15]: 0.002 ng/mL

C=CCc1ccc(OC)cc1 [Estragole]
KC50 (fiducial limits) ([7]; 20 Minutes): >502 µg/mL
KC50 (fiducial limits) ([7]; 30 Minutes): >243 µg/mL
LT50 (fiducial limits) (M. domestica (housefly)): 1.04 h
LC90 (fiducial limits) [8, 17]: 15.3 µg/mL (≈ 103 µM)
LC50 (fiducial limits) ([8]; in vivo): 5.89 µg/mL (≈ 39.7 µM)
LC90 (fiducial limits) [9, 18]: 15.3 µg/mL (≈ 103 µM)
LC50 (fiducial limits) ([9]; in vivo): 24.1 µg/mL (≈ 163 µM)
LC50 (fiducial limits) ([10]; in vivo): 483 µg/mL (≈ 3260 µM)
LC90 (fiducial limits) ([10]; melon fly): 953 µg/mL (≈ 6430 µM)
LC50 (fiducial limits) ([11]; in vivo): 3.28 µg/mL (≈ 22.1 µM)
LC90 (fiducial limits) ([11]; spider mites, exposed one hour): 21.0 µg/mL (≈ 142 µM)
LC90 (fiducial limits) [12, 19]: 0.91 µg/mL (≈ 6.14 µM)
LC50 (fiducial limits) ([12]; in vivo): 0.25 µg/mL (≈ 1.69 µM)
LT50 (fiducial limits) [3]: 8.23 h
LT50 (fiducial limits) [4]: 0.60 h
LC50 (fiducial limits) against T. chilonis [13]: 1.64 µg/mL (≈ 11.1 µM)
LC90 (fiducial limits) against T. chilonis [13]: 34.9 µg/mL (≈ 235 µM)
KC50 (fiducial limits) (Aedes aegypti (mosquito); 10 Minutes): >8.1 µg/mL
KC50 (fiducial limits) (Aedes aegypti (mosquito); 20 Minutes): 2.32 µg/mL
KC50 (fiducial limits) (Aedes aegypti (mosquito); 30 Minutes): >8.1 µg/mL
activity against flower Thrips in preliminary screening [2]: exhibit insecticidal activity
LT50 (fiducial limits) against A. japonicus [5]: 1.19 (1.02-1.37) hour
LC50 (fiducial limits) [14]: 0.24 µg/mL (≈ 1.62 µM)
LC90 (fiducial limits) [14]: 1.29 µg/mL (≈ 8.7 µM)
LC50 (fiducial limits) ([14]; listed as estragole): 0.241 µg/mL (≈ 1.63 µM)
LT50 (fiducial limits) [6]: 1.69 h

C=CC(=C)CCC=C(C)C [Myrcene]
activity against flower Thrips in preliminary screening [2]: not active
Vp (Pa)/T (° C.) ([1]; T 25 °C): 278.64/25 Pa

CCOC=O [ethyl formate, reference compound]
LC50 ([2]; flower Thrips, positive fumigant control): greater than 9.2 μg/cm^3

C/C=C/c1ccc(OC)cc1 [trans-Anethole]
KC50 (fiducial limits) ([7]; 30 Minutes): >243 µg/mL
time within which the insects responded [7]: ≤ 30 min
LT50 (fiducial limits) (M. domestica (housefly)): 2.01 h
LT50 (fiducial limits) [3]: 7.97 h
LT50 (fiducial limits) [4]: 1.07 h
KC50 (fiducial limits) (Aedes aegypti (mosquito); 10 Minutes): >8.1 µg/mL
KC50 (fiducial limits) (Aedes aegypti (mosquito); 20 Minutes): 4.84 µg/mL
KC50 (fiducial limits) (Aedes aegypti (mosquito); 30 Minutes): 4.05 µg/mL
activity against flower Thrips in preliminary screening [2]: exhibit insecticidal activity
LT50 (fiducial limits) against A. japonicus [5]: 0.933 (0.73-1.11) hour
LT50 (fiducial limits) [6]: 2.28 h

Spinetoram
Control Efficacy ([16]; 1 DAT): 68%
Control Efficacy ([16]; 3 DAT): 87%
Control Efficacy ([16]; 5 DAT): 36%
Control Efficacy ([16]; 7 DAT): 49%
Control Efficacy ([16]; 14 DAT): 66%
Control Efficacy ([16]; 21 DAT): 25%
Control Efficacy (flower Thrips; 1 DAT): 70%
Control Efficacy (flower Thrips; 3 DAT): 94%
Control Efficacy (flower Thrips; 5 DAT): 37%
Control Efficacy (flower Thrips; 7 DAT): 33%
Control Efficacy (flower Thrips; 14 DAT): 62%
Control Efficacy (flower Thrips; 21 DAT): 0%
